Results taken from the SangsterLogP compilation.

What was measured:
[1] = not given; remark: listed apart in the source

Compound | logP | logP [1]
c1ccc2c(c1)ccc1ncccc12 | 3.25 | –
c1csc(-c2cccs2)c1 | – | 3.75
c1ccc2c(c1)c1cccc3ccc4cccc2c4c31 | 6.44 | –
c1ccc2c(c1)CCO2 | 2.26 | –
c1ccc(-c2cccc(-c3ccccc3)n2)cc1 | 4.6 | –
c1ccc2cc3c(cc2c1)oc1ccccc13 | 5.08 | –
c1ccc2c(c1)Oc1ccccc1O2 | – | 4.19
c1ccc(-c2cccc(-c3ccccn3)n2)nc1 | 1.96 | –
c1ccc2occc2c1 | 2.53 | –
c1cc(-c2ccncc2)ccn1 | 1.33 | –
c1ccc2c(c1)ccc1cccnc12 | 3.25 | –
c1ccc(-c2cc3cccnc3c3ncccc23)cc1 | 3 | –
C1=Cc2ccc3c4c(ccc1c24)C=C3 | 5.07 | –
c1ccc2cc3c(cc2c1)sc1ccccc13 | – | 5.07
c1cc2c3c(c1)ccc1ccc4cccc-2c4c13 | 6.63 | –
c1ccc2c(c1)COC2 | – | 1.63
c1ccc2c(c1)ccc1c2ccc2ccc3ccccc3c21 | 7.11 | –
c1cnccn1 | -0.05 | –

Compound | logP | logP [1]
c1cc2ccc3cc4cccc5ccc6cc(c1)c2c3c6c54 | 7.04 | –
c1cnc2c(c1)ccc1cccnc12 | 1.93 | –
c1ccc2cc3c(ccc4c5ccccc5ccc34)cc2c1 | 7.11 | –
c1ccc(-c2c3ccccc3c(-c3ccccc3)c3ccccc23)cc1 | 8.46 | –
c1ccc2c(c1)Cc1ccccc1O2 | – | 4.23
c1cc2ccc3ccc4ccc5cccc6c(c1)c2c3c4c56 | 7.04 | –
c1ccc2c(c1)c1ccccc1c1c3ccccc3c3ccccc3c21 | 8.39 | –
c1ccc2c(c1)cc1ccc3cccc4c5ccccc5c2c1c34 | 7.71 | –
c1ccc2c(c1)ccc1c2ccc2c3ccccc3ccc21 | 7.11 | –
c1cnc2c(c1)ccc1ncccc12 | 1.93 | –
c1ccc2c(c1)ccc1c3ccc4ccccc4c3[nH]c21 | 5.89 | –
c1ccc2c(c1)c1ccccc1c1ccccc21 | 5.84 | –
c1ccc2c(c1)Sc1ccccc1S2 | – | 4.47
c1ccc2sccc2c1 | – | 3.26
c1ccc(-c2ccccn2)nc1 | – | 1.67
c1ccc2cc3c4ccccc4c4ccccc4c3cc2c1 | 7.11 | –
c1ccc2cc3cc4cc5ccccc5cc4cc3cc2c1 | 7.11 | –
